Earlier results as cited in patent publication US8853212B2, “Substituted aminotetrahydrothiopyrans and derivatives thereof as dipeptidyl peptidase-IV inhibitors for the treatment of diabetes” (Merck Sharp & Dohme Corp, priority 2010, dated 2014).
Each block holds one compound with its values, some of them ahead of it.

Experiments:
cardiac allograft = conditions: rats; doubled from day 7
hematopoiesis = conditions: mouse, cyclophosphamide-induced neutropenia
DPP-4 = DPP-4 (Homo sapiens (Human), UniProt P27487)
Chain of DPP-4 (P27487 39-766, species assumed): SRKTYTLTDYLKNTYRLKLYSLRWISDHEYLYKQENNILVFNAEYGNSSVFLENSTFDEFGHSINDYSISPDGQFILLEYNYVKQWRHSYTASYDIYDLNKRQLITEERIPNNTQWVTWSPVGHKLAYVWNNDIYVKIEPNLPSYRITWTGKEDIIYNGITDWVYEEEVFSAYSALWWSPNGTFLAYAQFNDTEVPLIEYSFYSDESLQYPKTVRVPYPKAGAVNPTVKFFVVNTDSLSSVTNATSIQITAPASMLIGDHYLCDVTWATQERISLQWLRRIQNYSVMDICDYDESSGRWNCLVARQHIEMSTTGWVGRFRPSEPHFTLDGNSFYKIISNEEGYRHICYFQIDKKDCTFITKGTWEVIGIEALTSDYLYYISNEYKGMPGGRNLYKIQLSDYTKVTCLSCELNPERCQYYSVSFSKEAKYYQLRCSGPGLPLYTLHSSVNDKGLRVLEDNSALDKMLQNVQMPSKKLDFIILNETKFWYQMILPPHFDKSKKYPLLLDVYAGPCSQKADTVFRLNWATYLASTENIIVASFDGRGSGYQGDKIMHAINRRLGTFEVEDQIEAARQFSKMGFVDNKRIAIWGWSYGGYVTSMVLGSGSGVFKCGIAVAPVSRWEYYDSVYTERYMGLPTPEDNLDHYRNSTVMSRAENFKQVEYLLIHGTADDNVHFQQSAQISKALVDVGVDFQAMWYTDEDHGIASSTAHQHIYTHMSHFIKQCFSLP

Compound: CC(C)N1CCC(c2ccccc2)(c2ccccc2)CC1 [Prodipine, Pro-Pro-diphenyl-phosphonate]
cardiac allograft survival (cardiac allograft): 14 day

Compound: CC(C)[C@H](N)C(=O)N1CCC[C@H]1B(O)O [Val-Bono-Pro]
hematopoiesis (hematopoiesis): stimulated hematopoiesis

degradation of GRF in plasma to GRF[3-44] (DPP-4): prevented
Compound: diprotin A
